System: depression with gastro-intestinal over-growth with Aspergillus and Candida yeasts
Assay: Antidepressive effectiveness (proband tests), multi-step method
Type: in vivo, human
Parameters: key: − negative; + positive
Settings: Level 0 antidepressants (Seroxat); Level 1 1 g/day oral 4 weeks; Level 2 2 g daily oral 4 weeks after level 1
Description: Antidepressive effectiveness (2 proband tests/female 1/male 1)
Diseases such as depressions can often be treated in an exclusively symptomatic way with psychopharmaceuticals. However, mycoses/mycotoxins may be the initial cause of such diseases. The object was to eliminate the gastro-intestinal over-growth with Aspergillus and Candida yeasts using BHQ (see also Patent Application EP 00 124 497), and to apply BHQ R6 regenerative agent in a multi-step method.
Level 0: Depression conservatively treated with antidepressants (Seroxat®). The general state of health was subjectively reported as non-satisfactory; in part, depression attacks occurred at different times of day (e.g., in the evening), so that the dosage was increased. The microbiological detection of Candida spec. and Aspergillus spec. was positive. The probands complained about a high weight increase (“spongy feeling”).
Level 1: For 4 weeks, BHQ “flavor-containing medicament” was administered orally once a day for the decontamination of the mycosis and/or any mycotoxins present (1 g/day).
Level 2: As a next step after level 1, BHQ R6 regenerative agent (2 g daily) was administered orally for 4 weeks.

Fc1ccc([C@@H]2CCNC[C@H]2COc2ccc3c(c2)OCO3)cc1 [Seroxat]
General health: −
Weight increase: +
microbiological gastro-intestinal detection: Candida spec. Aspergillus spec.: +
part. status: +

Source: patent US20040076614A1, “Symbiotic regenerative agent” (priority 2001, published 2004)
